Data from ChEMBL document CHEMBL1131983, “Synthesis of piperazine derivatives and evaluation of their antihistamine and antibradykinin effects” (Bioorg Med Chem Lett, 1999).

Key:
Assay type in all cases: tissue-based
[1] = biological target: T1, B2 bradykinin receptor (Rattus norvegicus) (UniProt P25023); experiment: In vitro inhibitory activity against Bradykinin receptor B2 in isolated rat ileum at 0.1 uM
T1 sequence (whole entry): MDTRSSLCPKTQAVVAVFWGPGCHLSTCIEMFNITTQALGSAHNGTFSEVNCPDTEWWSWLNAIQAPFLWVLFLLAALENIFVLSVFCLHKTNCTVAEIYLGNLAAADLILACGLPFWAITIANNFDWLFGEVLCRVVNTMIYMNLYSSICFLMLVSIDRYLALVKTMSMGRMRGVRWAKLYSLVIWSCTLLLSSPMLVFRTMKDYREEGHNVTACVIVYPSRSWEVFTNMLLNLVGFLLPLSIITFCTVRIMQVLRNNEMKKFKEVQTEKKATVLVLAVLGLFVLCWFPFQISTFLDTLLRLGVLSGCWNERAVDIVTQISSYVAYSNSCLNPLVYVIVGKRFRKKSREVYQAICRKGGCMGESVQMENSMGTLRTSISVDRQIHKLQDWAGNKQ

[2] = biological target: Histamine H1 receptor (Cavia porcellus) (UniProt P31389); experiment: In vitro inhibitory activity against histamine H1 receptor in guinea-pig ileum at 0.1 uM
[3] = biological target: T1, B2 bradykinin receptor (Rattus norvegicus); experiment: In vitro inhibitory activity against Bradykinin receptor B2 in isolated rat ileum at 0.1uM; '-' indicates activation

Chain of Histamine H1 receptor (Cavia porcellus) (P31389 whole entry): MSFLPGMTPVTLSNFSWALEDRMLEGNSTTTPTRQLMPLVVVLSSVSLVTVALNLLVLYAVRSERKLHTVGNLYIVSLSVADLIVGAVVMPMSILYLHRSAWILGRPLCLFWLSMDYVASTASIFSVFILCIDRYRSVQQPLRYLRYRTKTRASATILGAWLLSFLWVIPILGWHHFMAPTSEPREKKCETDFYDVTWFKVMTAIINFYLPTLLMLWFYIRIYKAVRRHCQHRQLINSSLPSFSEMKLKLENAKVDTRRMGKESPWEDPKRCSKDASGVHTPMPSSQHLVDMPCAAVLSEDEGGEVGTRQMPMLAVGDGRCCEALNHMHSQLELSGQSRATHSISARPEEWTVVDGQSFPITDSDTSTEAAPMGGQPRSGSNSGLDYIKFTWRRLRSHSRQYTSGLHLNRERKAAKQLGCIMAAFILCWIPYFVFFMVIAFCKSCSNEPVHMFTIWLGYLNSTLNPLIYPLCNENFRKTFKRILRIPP

| Compound | inhibition [1] [%] | inhibition [2] [%] | inhibition [3] [%] |
| --- | --- | --- | --- |
| CC(C)(COCC(=O)O)CN1CCN(C(c2ccccc2)c2ccc(Cl)cc2)CC1 (centres undefined) | 33.4 | 42.9 |  |
| Clc1ccc(C(c2ccccc2)N2CCN(CCCOCc3cccc4ccccc34)CC2)cc1 (centres undefined) | 11.9 | 63 |  |
| CC(CN1CCN(C(c2ccccc2)c2ccc(Cl)cc2)CC1)(OCC(=O)O)c1ccccc1 (centres undefined) | 45.6 | 12.5 |  |
| COc1cccc(COCCN2CCN(C(c3ccccc3)c3ccc(Cl)cc3)CC2)c1 (centres undefined) |  | 33 | -10 |
| O=C(O)COC(CCN1CCN(C(c2ccccc2)c2ccc(Cl)cc2)CC1)c1ccccc1 (centres undefined) | 25.4 | 52.7 |  |
| CCC(OCCN1CCN(C(c2ccccc2)c2ccc(Cl)cc2)CC1)C(=O)O (centres undefined) | 12.6 | 10.2 |  |
| COc1ccc(COCCN2CCN(C(c3ccccc3)c3ccc(Cl)cc3)CC2)cc1 (centres undefined) | 8.7 | 78.5 |  |
| Clc1ccc(C(c2ccccc2)N2CCN(CCOCc3ccc4ccccc4c3)CC2)cc1 (centres undefined) |  | 10 | -9.5 |
| Clc1ccc(C(c2ccccc2)N2CCN(CCCOCc3ccc4ccccc4c3)CC2)cc1 (centres undefined) | 17.7 | 26.4 |  |
| O=C(O)Cc1ccc(COCCN2CCN(C(c3ccccc3)c3ccc(Cl)cc3)CC2)cc1 (centres undefined) | 36.6 | 28.4 |  |
| Clc1ccc(C(c2ccccc2)N2CCN(CCOCc3cccc4ccccc34)CC2)cc1 (centres undefined) | 17 | 20 |  |
| O=C(O)COC(CN1CCN(C(c2ccccc2)c2ccc(Cl)cc2)CC1)c1cccc2ccccc12 (centres undefined) | 26.6 | 57 |  |

Next, values leading:

| inhibition [1] [%] | inhibition [2] [%] | inhibition [3] [%] | Compound |
| --- | --- | --- | --- |
| 25 | 14.3 |  | CC(COCC(=O)O)CN1CCN(C(c2ccccc2)c2ccc(Cl)cc2)CC1 (centres undefined) |
| 27 | 50.7 |  | O=C(O)COCCN1CCN(C(c2ccccc2)c2ccc(Cl)cc2)CC1 (centres undefined) |
| 5 | 77.5 |  | CC(C)c1ccc(COCCN2CCN(C(c3ccccc3)c3ccc(Cl)cc3)CC2)cc1 (centres undefined) |
| 9.1 | 43.7 |  | O=C(O)C(OCCN1CCN(C(c2ccccc2)c2ccc(Cl)cc2)CC1)c1ccccc1 (centres undefined) |
|  | 11 | -3.7 | O=C(O)COC(CCc1ccccc1)CN1CCN(C(c2ccccc2)c2ccc(Cl)cc2)CC1 (centres undefined) |
